This data set can be described thus: Blood concentration of TE-031 after oral administration to Beagle dogs (bioassay method). The class given is in vivo. Conditions: dog, male Beagle dogs. On the procedure:
Test Animals Five male Beagle dogs weighing 10 kg were used as experimental animals. Sample The pharmaceutical preparation obtained in Example 1 (coated particles containing 39% of TE-031 prepared by using AEA powder having an average particle diameter of 16 microns as the powder bed) was used in an amount of 100 mg as TE-031. Testing procedure The sample was orally administered together with water to the experimental animals, and the concentration of TE-031 in the blood was measured by the bioassay method. Then after a period of 10 days during which the sample was not administered, a capsule containing 100 mg of the bulk of TE-031 was orally administered as a control together with water. The concentration of TE-031 in the blood was likewise measured by bioassay.

In the case of `CC[C@H]1OC(=O)[C@H](C)[C@@H](O[C@H]2C[C@@](C)(OC)[C@@H](O)[C@H](C)O2)[C@H](C)[C@@H](O[C@@H]2O[C@H](C)C[C@H](N(C)C)[C@H]2O)[C@](C)(OC)C[C@@H](C)C(=O)[C@H](C)[C@@H](O)[C@]1(C)O` [bulk, 6-O-methylerythromycin A], where the note is “100 mg as TE-031, read-out: area below the blood level curve”, the AUC stood at 42400 ng·h/mL. Further, under “100 mg as TE-031, read-out: maximum blood level”, the Cmax worked out at 3060 ng/mL. Under “100 mg as TE-031, read-out: time of highest blood level”, the Tmax is 2 h.

For the origin of these results see patent US4892740A, “Orally administrable pharmaceutical preparation of improved flavoring characteristics” (Taisho Pharmaceutical Co., Ltd., priority 1987, dated 1990).
